In PMC10895676, “Antiviral Activity of Lipophilic Nucleoside Tetraphosphate Compounds” (Journal of Medicinal Chemistry, 2024):
Like-named read-outs stand apart in the source and are kept apart here.

Tests used:
[1] = Chemical hydrolysis in aqueous buffers (PBS pH 7.3 / 8.0, citrate buffer pH 2.0), RP18-HPLC; assay type: physicochemical; conditions: for half-life at 1.9 mM: phosphate buffered saline
Protocol: All metabolite mixtures were analyzed and quantified by means of analytical RP18-HPLC (UV detection).
The solution was incubated at 37 °C in a thermomixer. […] for each extraction and stored at −30 °C. When testing, samples were warmed up to room temperature, and 25 or 20 μL of the liquid was taken and injected into the analytical RP-18-HPLC instrument. Further aliquots were taken for monitoring the kinetic hydrolysis.
5.88 g of citric acid and 3.58 g of NaCl were dissolved in 82 mL of hydrochloric acid (0.1 mol/L). Then, sodium hydroxide was added to adjust the pH to 2.0.

HIV-1 (HE) [2] = experiment: Anti-HIV replication assay, HIV-1 (HE) in wild-type CEM/0 cells; assay type: cell-based; conditions: Human immunodeficiency virus 1, CCRF-CEM; wild-type CEM/0 cells; mean ± SD, n = 2–3; read-out: HIV-1 (HE) EC50
Protocol: (§1) Inhibition of HIV-1(HE)- and HIV-2(ROD)-induced cytopathogenicity in wild-type CEM/0 CEM CD4^+ T-cells and thymidine kinase-deficient CEM/TK^– cell cultures was measured in microtiter 96-well plates containing ∼3 × 10^5 CEM cells/mL infected with 100 CCID50 of HIV per milliliter and containing appropriate dilutions of the test compounds. After 4–5 days of incubation at 37 °C in a CO2-controlled humidified atmosphere, virus-induced cellular effects and syncytia cell formation were examined microscopically. The EC50 (50% effective concentration) was defined as the compound concentration required to inhibit HIV-induced giant cell formation by 50%.

HIV-2 (ROD) [3] = experiment: Anti-HIV replication assay, HIV-2 (ROD) in wild-type CEM/0 cells; assay type: cell-based; conditions: for selectivity index (SI): CC50/EC50, HIV-2 (ROD) in CEM cells; for EC50: Human immunodeficiency virus 2, CCRF-CEM, wild-type CEM/0 cells, mean ± SD, n = 2–3, read-out: HIV-2 (ROD) EC50
Protocol: as §1, with “microscopically.” for “microscopically. The EC50 (50% effective concentration) was defined as the compound concentration required to inhibit HIV-induced giant cell formation by 50%.”

HIV-2 (ROD) [4] = experiment: Anti-HIV replication assay, HIV-2 (ROD) in thymidine kinase-deficient CEM/TK– cells; assay type: cell-based; conditions: for selectivity index (SI): CC50/EC50, HIV-2 (ROD) in CEM/TK– cells; for EC50: Human immunodeficiency virus 2, CEM/TK– cells, mean ± SD, n = 2–3, read-out: CEM/TK– HIV-2 (ROD) EC50
Protocol: as §1, with “microscopically.” for “microscopically. The EC50 (50% effective concentration) was defined as the compound concentration required to inhibit HIV-induced giant cell formation by 50%.”

[5] = Cytotoxicity, inhibition of CEM cell proliferation; assay type: cell-based; conditions: human, CEM cells (CD4+ T-cells), read-out: toxicity CC50
[6] = Cytotoxicity, inhibition of CEM/TK– cell proliferation; assay type: cell-based; conditions: human, CEM/TK– cells (CD4+ T-cells), read-out: toxicity CC50
pig liver esterase (PLE) [7] = tested on: pig liver esterase (PLE); parameters: method as in PMID 26503889; conditions: cited from earlier work
[8] = PBS; cited from earlier work
HIV-1 (HE) [9] = conditions: CEM/0 cells; cited from earlier work
CD4+ T-cell (CEM) = conditions: CEM cell proliferation; read-out: toxicity CC50; cited from earlier work
[10] = Hydrolysis in CEM/0 cell extracts; assay type: in vitro ADME; conditions: human, 37 °C, read-out: CEM/0 cell extracts t1/2 (converted)
Protocol: Next, TetraPPPPro-nucleotides 4–9 were incubated in human CD4^+ T-lymphocyte CEM/0 cell extracts to study their stability and identify the hydrolysis products.
CEM cells were grown in RPMI-1640-based cell culture medium to a final density of ∼3 × 10^6 cells/mL. Cells were centrifuged for 10 min at 1250 rpm at 4 °C and washed twice with cold PBS, and the pellet was resuspended at 10^8 cells/mL and sonicated (Hielscher Ultrasound Techn., 100% amplitude, 3·times for 10 s) to destroy cell integrity. Next, the resulting cell suspension was centrifuged at 10,000 rpm to remove cell debris. Finally, the supernatant was divided into aliquots and frozen at −80 °C.
(§2) 6.0 mM hydrolysis solutions of compounds 4–9 were prepared from 21 μL of 50 mM DMSO stock solutions and 154 μL of DMSO. Two different samples, including 10 μL of water and 10 μL of 6.0 mM hydrolysis solution, were prepared in 2 mL Eppendorf vials. Next, 50 μL of human CEM cell extracts or 50 μL of human citrate plasma were added to the mixture, the reaction was started, and the mixture was incubated at 37 °C for different time periods. The reactions were stopped by the addition of 150 μL of MeOH. The resulting suspension was kept on ice for 5 min, followed by defrosting and centrifugation at 14,000 rpm (Heraeus, Biofuge Pico) for 22 min. The supernatants (80 or 60 μL) were directly injected into HPLC. The calculation of t1/2 was performed analogously to that for the chemical hydrolysis studies.

pig liver esterase (PLE) [11] = experiment: Enzymatic hydrolysis with pig liver esterase (PLE); assay type: in vitro ADME; conditions: pig liver esterase in phosphate buffer, PLE in phosphate buffer pH 7.3, 37 °C, read-out: PLE t1/2 (converted)
Protocol: To confirm the enzymatic hydrolysis process, TetraPPPPro-nucleotides 4–9 bearing different kinds of lipophilic groups attached to the δ-phosph(on)ate group were incubated with PLE in phosphate buffer.
Then, 833 μL of 50 mM phosphate buffer (pH 7.3) and 125 μL of DMSO were added to the 6.0 mM hydrolysis solutions. The reaction was started by addition of 62.5 μL of PLE in phosphate buffer (100 units/mL), and the mixture was incubated at 800 rpm at 37 °C in a thermomixer. (1). At different times, aliquots (75 μL) were taken and stopped by the addition of […] of MeOH. The mixture was stored in liquid nitrogen. When testing, samples were warmed up to room temperature, and 60 μL of the liquid was directly injected into HPLC analysis. (2). 40 μL for each extraction was stored in liquid nitrogen. When testing, samples were warmed up to room temperature, and 30 μL of the liquid was taken and injected into the analytical RP-18-HPLC instrument. The calculation of t1/2 was performed analogously to that for the chemical hydrolysis studies.

[12] = Hydrolysis in citrate-stabilized human plasma; assay type: in vitro ADME; conditions: 37 °C, read-out: t1/2 in citrate-stabilized human plasma (converted)
Protocol: Finally, the supernatant was divided into aliquots and frozen at −80 °C.
as §2, with “Two” for “6.0 mM hydrolysis solutions of compounds 4–9 were prepared from 21 μL of 50 mM DMSO stock solutions and 154 μL of DMSO. Two”

[13] = PBS, pH 8.0, 37 °C, read-out: PBS pH 8.0 t1/2 (converted)
[14] = 25 mM PBS, pH 7.3, 37 °C, read-out: PBS pH 7.3 t1/2 (converted)

SMILES	half-life at 1.9 mM [1, 13] [h]	EC50 (HIV-1 (HE) [2]) [µM]	selectivity index (SI) (HIV-2 (ROD) [3])	EC50 (HIV-2 (ROD) [3]) [µM]	selectivity index (SI) (HIV-2 (ROD) [4])	EC50 (HIV-2 (ROD) [4]) [µM]	CC50 [5] [µM]	CC50 [6] [µM]	PLE t1/2 (pig liver esterase (PLE) [7])	PBS pH 7.3 t1/2 [8]	EC50 (HIV-1 (HE) [9]) [µM]	CC50 (CD4+ T-cell (CEM)) [µM]	half-life ([1]; 25 mM citrate buffer, pH 2.0, 37 °C) [h]	half-life at 1.9 mM [1, 14] [h]	half-life at 0.86 mM [10] [h]	half-life at 0.45 mM (pig liver esterase (PLE) [11]) [h]	half-life at 0.86 mM [12] [h]
CCCCCCCCCC(=O)Oc1ccc(COP(=O)(OCc2ccc(OC(=O)CCCCCCCCC)cc2)OP(=O)(O)OP(=O)(O)OC[C@@H]2C=C[C@H](n3cc(C)c(=O)[nH]c3=O)O2)cc1 [1a, γ-(AB-C9; AB-C9)-d4TTP, reference compound]	68	0.042 ± 0.02	1109	0.066 ± 0.026	172	0.29 ± 0.19	73.2	50	0.082[43] h	44[43] h	–	–	–	–	–	–	–
CCCCCCCCCCCCCCCCCCP(=O)(OCc1ccc(OC(=O)CCCC)cc1)OP(=O)(O)OP(=O)(O)OC[C@@H]1C=C[C@H](n2cc(C)c(=O)[nH]c2=O)O1 (stereo partly shown) [2b, γ-(AB-C4)-γ-C-(C18)-d4TTP]	–	–	–	–	–	–	–	–	–	646 h	0.0074 ± 0.0014	19	–	–	–	–	–
CCCCCCCCCCCCCCCCCCOP(=O)(OCCCC)OP(=O)(O)OP(=O)(O)OC[C@@H]1C=C[C@H](n2cc(C)c(=O)[nH]c2=O)O1 (stereo partly shown) [3a, γ-(alkyl-C4; alkyl-C18)-d4TTP]	–	–	–	–	–	–	–	–	–	–	–	30	–	–	–	–	–
CCCCCCCCCCCCCCCCCCP(=O)(OCCCC)OP(=O)(O)OP(=O)(O)OC[C@@H]1C=C[C@H](n2cc(C)c(=O)[nH]c2=O)O1 (stereo partly shown) [3b, γ-(alkyl-C4)-γ-C-(alkyl-C18)-d4TTP]	–	–	–	–	–	–	–	–	–	> 1700 h	–	33	–	–	–	–	–
CCCCCCCCCCCCCCCCCCOP(=O)(OCc1ccc(OC(=O)CCCC)cc1)OP(=O)(O)OP(=O)(O)OP(=O)(O)OC[C@@H]1C=C[C@H](n2cc(C)c(=O)[nH]c2=O)O1 (stereo partly shown) [compound 6, δ-(AB-C4; alkyl-C18)-d4T4P]	99	0.083 ± 0.018	643	0.063 ± 0.032	813	0.059 ± 0.054	40.5	48	–	–	–	–	27	77	6.67	1.06	2.1
CCCCCCCCCC(=O)Oc1ccc(COP(=O)(OCc2ccc(OC(=O)CCCCCCCCC)cc2)OP(=O)(O)OP(=O)(O)OP(=O)(O)OC[C@@H]2C=C[C@H](n3cc(C)c(=O)[nH]c3=O)O2)cc1 [compound 8, δ-(AB-C9; AB-C9)-d4T4P]	–	0.39 ± 0.16	173	0.26 ± 0.14	11	4.44 ± 1.54	45	50	–	–	–	–	–	26	1.37	0.07	2.8
